Experimental data published in article PMC4350332 (Oncotarget, 2014).
Read-outs that look alike come from different tables or passages of the source.

Experiments:
PDK-3 = target: T1, PDK-3 (Homo sapiens, UniProt Q15120); test: DELFIA-based enzyme functional assay (E1 substrate), PDK-3; format: biochemical; details: data not shown
T1 construct: PDK-3: residues 9-406; made in house; host or cells: E. coli BL21

PDK-1 [1] = target: T2, PDK-1 (Homo sapiens, UniProt Q15118); details: read-out: In vitro functional (E1/E2), IC50, PDK-1; E1/E2 as the substrate
T2 sequence (Q15118 30-436): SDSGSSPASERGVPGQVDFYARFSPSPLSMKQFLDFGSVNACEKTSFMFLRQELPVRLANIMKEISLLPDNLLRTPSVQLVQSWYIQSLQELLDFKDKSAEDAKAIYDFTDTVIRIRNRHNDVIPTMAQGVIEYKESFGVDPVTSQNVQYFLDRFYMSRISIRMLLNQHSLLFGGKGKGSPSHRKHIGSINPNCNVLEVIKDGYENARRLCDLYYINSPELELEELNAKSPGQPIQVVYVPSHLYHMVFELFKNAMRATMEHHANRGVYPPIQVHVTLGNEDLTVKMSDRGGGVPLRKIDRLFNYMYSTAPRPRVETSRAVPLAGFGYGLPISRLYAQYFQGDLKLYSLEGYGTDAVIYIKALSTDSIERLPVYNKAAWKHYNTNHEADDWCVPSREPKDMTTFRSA
Experimental: DELFIA assay reagents (assay buffer, wash buffer, enhancement solution and anti-rabbit IgG-Eu-N1 secondary antibody) and plates were obtained from Perkin Elmer (MD, USA). Test compounds were subjected to a 10 point tripling dilution in DMSO, diluted in MOPS buffer (60mM MOPS pH7.2, 15 mM Magnesium acetate, 60 mM KCl) and added to the enzyme mix (10 nM PDK-1, 2 and 3 or 20 nM PDK-4, 300nM E1, 0.1 mg/mL BSA, 1 mM DTT) in 96-well V-bottom plates (Greiner). The reaction was initiated by the addition of ATP to a final concentration of 5 μM followed by a 1 h incubation at 30°C. The reaction was then stopped by the addition of STOP solution (50 mM Carbonate-Bicarbonate Buffer, pH 9.6), and then transferred to 96 well DEFLIA yellow plates. The plates were then sealed and incubated o/n at 4°C. Detection and quantification of p(Ser^293)E1α levels was then achieved through incubation with anti-p(Ser^293)E1α primary antibody (Genescript) followed by anti-rabbit secondary IgG-Eu-N1 antibody and addition of enhancement solution as per the manufacturer's instructions. The time-resolved fluorescent signal was then measured using a Victor2 plate reader (Perkin Elmer). The data was fitted by non-linear regression using XLFIT4 within a custom ABASE (IDBS) protocol in order to determine IC50 values.

PDK-1 [2] = target: T2, PDK-1; test: PDK-1 fluorescence polarization assay (fluorescein-labelled ATP site probe); format: binding; design: PDK-1: residues 30-436; made in house; host or cells: E. coli BL21; details: fluorescence polarization; mean of n determinations; read-out: PDK-1 FP, IC50
Experimental: carbamoyl]-2-(6-hydroxy-3-oxo-3H-xanthen-9-yl)benzoic acid), which binds to the ATP site of PDK resulting in an increase in anisotropy.
The HSP-90ß FP assay was conducted as previously described.

panel of 97 kinases = test: scanEDGE kinase selectivity screen (DiscoverX); format: binding; details: 10 μM
Text: A proprietary active site-directed competition binding assay was employed to quantitatively measure interactions between test compounds and the individual kinases on the panel. Results were expressed as a percentage of control binding, with 0% indicating complete binding of the test compound.

Jurkat cells = test: 13C-NMR metabolite analysis in Jurkat cells; format: cell-based; details: 20 μM
Experimental: Jurkat cells (5 X 106) were pre-treated in RPMI-1640 media containing either DMSO or 20
μM VER-00246608 for 1 h. The cells were then pelleted and washed in PBS containing
DMSO/compound and re-suspended in glucose-free RPMI-1640 media containing 10% FCS
cell suspension was then transferred to a 5mm NMR tube and placed into the sample probe of
a Bruker DRX600 NMR spectrometer. The probe was pre-equilibrated to 37°C and shimmed
on a matched sample. Pulses were also calibrated on the matched sample. The sample
containing the Jurkat cells was rapidly shimmed and data acquisition initiated within 15
1D 13C NMR spectra (240ppm sweep width, 64k acquired points, 64 scans) were then
acquired at 10 minute intervals up to 2 h. The glucose and lactate peaks were converted to
concentrations by referencing to a cell-free reference sample containing the same
concentration of 1,6-13C-D-Glucose (11 mM).
D, Jurkat cells (5 X 106) were pre-treated in RPMI-
suspension in glucose-free RPMI-1640 media supplemented with 2 g/L 1,6-13C-D-Glucose followed by kinetic acquisition of 13C-NMR spectra at 10 min intervals. Representative curves from duplicate treatments are shown.

HFF cells = test: Sulforhodamine B cytotoxicity, HFF cells; format: cell-based, human; details: all of the conditions tested, 120 h
Experimental: Compound cytotoxicity was determined using the Sulforhodamine B assay for cells cultured as a monolayer as described previously (45). For spheroid growth experiments, PC-3 cells were seeded (500 cells/well) into 96 well round bottom plates (Corning Costar 7007) in RPMI-1640 media containing 2.5% (w/v) Matrigel (BD Biosciences). […] Spheroid volumes were determined by obtaining diameter measurements from images taken on a Zeiss Axiovert 200M inverted microscope using the axiovision software. […]
oncogenic KRAS(G13D) and BRAF(V600E) mutations. A and B, Cell lines harboring a KRAS(G13D) mutation (HCT-116, DLD-1 and MDA-MB-231), wild-type KRAS (MDA-MB-453) or a BRAF(V600E) mutation (A2058 and A375) were seeded into 96 well plates. The […]
DMSO in different culture conditions for 120 h. Cell mass was determined using the suforhodamine B assay. Norm = glucose-free media supplemented with 10% FCS and 2 g/L D-glucose; VLG (very low glucose) = 0.1 g/L D-glucose; LS (low serum) = 0.5% FCS.
Experiments were performed in triplicate. Error bars represent standard deviation of the […]
(1 picture or pasted object on this page, not shown here)

[3] = system: PC-3, K562, Jurkat and MDA-MD-453 cell lines; test: Growth in D-glucose or D-galactose media (Sulforhodamine B); format: cell-based; details: 20 μM, 96 h
Experimental: transformed and additional cancer cell lines. A, The indicated cell lines were seeded into
relevant media containing either 2 g/L D-glucose or D-galactose for 96 h. Cell mass was determined using the sulforhodamine B assay. Results are expressed as the percentage change vs DMSO control values for cells incubated in D-glucose containing media.
Experiments were performed in triplicate (A & C) or quadruplicate (B). Error bars represent standard deviation of the mean (*, P < 0.01).

PC-3 cells [4] = test: Cell cycle and sub-G1 analysis (PI/FACS); format: cell-based; details: PC-3, 20 μM, 48 h
Experimental: PC-3 cells were seeded into 6-well plates at a density of 1×10^5 cells per well. […] Following ethanol fixation and treatment with RNAse (Sigma), cellular DNA was stained with propidium iodide (50 μg/mL). The samples were then acquired on a FACSArray (BD Biosciences) flow cytometer and the data analyzed using FACSDiva software.

PC-3 cells [5] = test: Potentiation assay with cancer therapeutic agents, PC-3; format: cell-based
Experimental: (§1) The cells were then incubated for 120 h followed by cell mass determination using the Sulforhodamine B assay. […] Drug interactions were analyzed by the combination index (CI) method based on the method described by Chou. CI values <0.9 indicates synergism, 0.9 to 1.1 additivity, and >1.1 antagonism. The data was expressed in the form of Fa-CI simulation plot generated using calcusyn software (Biosoft). Potentiation assays were carried out as described previously.

ES-2 cells = test: Potentiation assay with doxorubicin, ES-2; format: cell-based
Experimental: as §1

PC-3 spheroids = test: Spheroid growth assay (3D culture); format: cell-based; details: concentrations of 10 μM and above
Experimental: Compound cytotoxicity was determined using the Sulforhodamine B assay for cells cultured as a monolayer as described previously (45). For spheroid growth experiments, PC-3 cells were seeded (500 cells/well) into 96 well round bottom plates (Corning Costar 7007) in RPMI-1640 media containing 2.5% (w/v) Matrigel (BD Biosciences). […] Spheroid volumes were determined by obtaining diameter measurements from images taken on a Zeiss Axiovert 200M inverted microscope using the axiovision software.

PC-3 cells [6] = test: Combination index analysis and potentiation with β-Chloro-alanine; format: cell-based; details: 20 μM VER-246608
Experimental: as §1

T1 sequence (Q15120 9-406): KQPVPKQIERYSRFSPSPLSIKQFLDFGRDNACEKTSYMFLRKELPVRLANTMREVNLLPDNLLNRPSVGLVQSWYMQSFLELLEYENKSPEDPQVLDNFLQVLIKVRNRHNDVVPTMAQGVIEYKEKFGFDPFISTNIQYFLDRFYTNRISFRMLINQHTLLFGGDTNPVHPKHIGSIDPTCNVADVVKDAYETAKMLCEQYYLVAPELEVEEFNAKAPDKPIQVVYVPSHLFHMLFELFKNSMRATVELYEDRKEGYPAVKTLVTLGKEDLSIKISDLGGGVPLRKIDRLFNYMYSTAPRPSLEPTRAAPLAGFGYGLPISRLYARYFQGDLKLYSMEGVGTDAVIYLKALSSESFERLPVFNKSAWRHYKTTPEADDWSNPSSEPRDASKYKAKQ

Row | Stimulation of PDK-3 activity (PDK-3) | IC50 (PDK-1 [1]) [nM] | IC50 (PDK-1 [2]) [nM] | Structure (SMILES) | Number of further kinases with ligand binding between 10 and 35% of control (panel of 97 kinases) | Number of kinases with ligand binding reduced to ≤ 10% of control values (panel of 97 kinases) | Kinases on the panel with significant or partial binding (panel of 97 kinases; ligand binding reduced to ≤35% of control) [%] | Decrease in the rate of D-glucose consumption (Jurkat cells) [%] | Decrease in the rate of L-lactate production (Jurkat cells) [%] | Activity against HFF cells (HFF cells) | Effect on growth in D-glucose or D-galactose containing media [3] | Cell cycle distribution (PC-3 cells [4]; serum-starved conditions) | Apoptosis induction (sub-G1 fraction) (PC-3 cells [4]; standard and serum-depleted conditions) | Potentiation of the remaining three agents (BEZ235, Cisplatin and 3-Bromopyruvate) (PC-3 cells [5]) | Potentiation of doxorubicin (PC-3 cells [5]; PC-3 cells) [fold] | Potentiation of doxorubicin (ES-2 cells) [fold] | Reduction in spheroid volume (PC-3 spheroids) | Potentiation factor for β-Chloro-alanine (PC-3 cells [6])
1 | approximately 2 fold | 3 | 83 | C[C@@H]1CN(C(=O)[C@](C)(O)C(F)(F)F)[C@@H](C)CN1C(=O)c1ccc(C#N)cc1 [Nov3r, reference compound] | – | – | – | – | – | – | – | – | – | – | – | – | – | –
2 | – | – | – | Cc1cnc(Cl)nc1-c1ccc(N(Cc2ccc(CNC(=O)C(F)F)cc2)C(=O)c2ccc(O)cc2O)cc1 [VER-246608] | seven | one | 8 | 23 | 25 | largely inactive | little to no effect | increased fraction of cells in the G1 phase | No evidence of apoptosis induction | No evidence of potentiation | 2 | 3 | approximately 50% | 1.8 ± 0.06
